Measured values reported in ChEMBL document CHEMBL4251748, “Discovery of Cytochrome P450 4F11 Activated Inhibitors of Stearoyl Coenzyme A Desaturase” (J Med Chem, 2018).

System: NCI-H2122
Assay: Cytotoxicity against human NCI-H2122 cells incubated for 4 days
Type: functional, cell-based
Conditions: NCI-H2122, 96 h

Compound	EC50
COc1ccc(CCNC(=O)C(=O)Nc2cccc(Cl)c2)cc1	380 nM
COc1ccc(CCNC(=O)C(=O)Nc2ccc(C)c(F)c2)cc1	310 nM
COc1ccc(CCNC(=O)C(=O)Nc2cccc(C#N)c2)cc1	410 nM
COc1ccccc1CCNC(=O)C(=O)Nc1ccc(Cl)cc1	> 50000 nM
COc1ccc(CCNC(=O)NC(=O)c2cccc(Br)c2)cc1	> 50000 nM
O=C(NCCc1cccc(O)c1)C(=O)Nc1ccc(Cl)cc1	2400 nM
COc1ccc(CCNC(=O)C(=O)N2CCc3ccccc32)cc1	> 50000 nM
COc1ccc(CCNC(=O)C(=O)Nc2ccccc2F)cc1	> 50000 nM
COc1ccc(CCNC(=O)C(=O)Nc2ccccc2OC)cc1	> 50000 nM
COc1ccc(CCNC(=O)C(=O)Nc2ccc(C#N)cc2)cc1	710 nM
COC(=O)c1ccc(C(=O)NC(=O)NCCc2ccc(OC)cc2)cc1	> 50000 nM
COc1ccc(CCNC(=O)C(=O)Nc2ccc(F)cc2)cc1	290 nM
COc1ccc(CCNC(=O)NC(=O)c2ccc(OCc3ccccc3)cc2)cc1	31 nM
COc1ccc(CCNC(=O)NC(=O)c2ccc(C(=O)N3CCOCC3)cc2)cc1	> 50000 nM
COc1ccc(CCNC(=O)C(=O)Nc2cncc(C)c2)cc1	2600 nM
COc1ccc(CCNC(=O)COc2ccc(Cl)cc2)cc1	> 50000 nM
COc1ccc(CCNC(=O)C(=O)N2CCCC2)cc1	> 50000 nM
CCOc1ccc(CCNC(=O)C(=O)Nc2ccc(Cl)cc2)cc1	> 50000 nM
COc1ccc(CCNC(=O)C(=O)NC2CCCCC2)cc1	> 50000 nM
COc1ccc(CCNC(=O)Nc2ccc(Cl)cc2)cc1	> 50000 nM
O=C(NCCc1ccccc1)C(=O)Nc1ccc(Cl)cc1	> 50000 nM
COc1ccc(CCNC(=O)NC(=O)c2ccc(C(N)c3ccccc3)cc2)cc1 (stereo not drawn)	320 nM

Compound	EC50
COc1ccc(CCNC(=O)C(=O)Nc2ccccn2)cc1	> 50000 nM
COc1ccc(CCNC(=O)c2ccc(Cl)cc2)cc1	> 50000 nM
COc1ccc(CCNC(=O)C(=O)Nc2ccc(C(=O)c3ccccc3)cc2)cc1	85 nM
COc1ccc(CCNC(=O)C(=O)NC2CCC2)cc1	> 50000 nM
COc1ccc(CCNC(=O)NC(=O)c2ccc(C(O)c3ccccc3)cc2)cc1 (stereo not drawn)	97 nM
COc1ccc(CCNC(=O)NC(=O)c2ccc(C(=O)c3ccccc3C)cc2)cc1	320 nM
COc1ccc(CCNC(=O)C(=O)Nc2ccccc2)cc1	460 nM
COc1ccc(CCNC(=O)c2ccc3ccccc3c2O)cc1	36000 nM
COc1ccc(CCNC(=O)C(=O)Nc2cc(F)cc(Cl)c2)cc1	> 50000 nM
COc1ccc(CCNC(=O)C(=O)Nc2ccncc2)cc1	> 50000 nM
COc1ccc(CCNC(=O)C(=O)Nc2ccc(Cl)cc2)cc1OC	> 50000 nM
COc1ccc(CCNC(=O)C(=O)N2CCc3ccccc3C2)cc1	> 50000 nM
O=C(NCCc1ccccc1O)C(=O)Nc1ccc(Cl)cc1	1720 nM
COc1ccc(CCNC(=O)c2nc3ccccc3o2)cc1	30000 nM
O=C(NCCc1ccc(Br)cc1)C(=O)Nc1ccc(Cl)cc1	> 50000 nM
COc1ccc(CCNC(=O)C(=O)O)cc1	> 50000 nM
COc1ccc(CCNC(=O)NC(=O)c2ccc(C(=O)c3ccccc3)cc2)cc1	110 nM
COc1ccc(CCCNC(=O)c2ccc(Cl)cc2)cc1	> 50000 nM
COc1ccc(CCNC(=O)c2cnc3ccccc3n2)cc1	> 50000 nM
COc1ccc(CCNC(=O)C(=O)Nc2cc(Cl)cc(Cl)c2)cc1	> 50000 nM
COc1ccc(CCNC(=O)c2nc3ccccc3[nH]2)cc1	> 50000 nM
COc1ccc(CCNC(=O)C(=O)Nc2ccc(OC)c(C)c2)cc1	810 nM

Compound	EC50
COc1ccc(CCCCNC(=O)c2ccc(Cl)cc2)cc1	3270 nM
COc1ccc(CCNC(=O)C(=O)Nc2ccc(Cl)c(Cl)c2)cc1	490 nM
COc1ccc(CCNC(=O)NC(=O)c2ccc(Oc3ccccc3)cc2)cc1	31 nM
COc1ccc(CCNC(=O)C(=O)Nc2ccc(Cl)nc2)cc1	440 nM
COc1ccc(CCNC(=O)c2ccc3cccc(O)c3n2)cc1	30000 nM
CCOc1cccc(NC(=O)C(=O)NCCc2ccc(OC)cc2)c1	24000 nM
O=C(NCCc1ccc(Cl)cc1)C(=O)Nc1ccc(Cl)cc1	> 50000 nM
COc1ccc(CCNC(=O)C(=O)N2CCCCC2)cc1	> 50000 nM
COc1ccc(CCNC(=O)C(=O)Nc2cncc(Cl)c2)cc1	5900 nM
COc1ccc(CCNC(=O)NC(=O)c2ccc(Br)cc2)cc1	160 nM
O=C(NCCc1ccc(F)cc1)C(=O)Nc1ccc(Cl)cc1	48000 nM
COc1ccc(CCNC(=O)C(=O)Nc2ccc(F)c(Cl)c2)cc1	740 nM
COc1ccc(CCNC(=O)N(C)C(=O)c2ccc(C(=O)c3ccccc3)cc2)cc1	6200 nM
COc1ccc(CCNC(=O)NC(=O)c2ccc(OC)cc2)cc1	1000 nM
COc1ccc(CCNC(=O)C(=O)Nc2cccc(F)n2)cc1	> 50000 nM
COc1ccc(CCNC(=O)NC(=O)c2ccc(C(=O)O)cc2)cc1	> 50000 nM
COc1ccc(CCNC(=O)C(=O)NCCc2ccc(OC)cc2)cc1	> 50000 nM
COc1ccc(CCNC(=O)C(=O)Nc2ccc(Cl)c(C#N)c2)cc1	400 nM
COc1ccc(CCNC(=O)C(=O)NC2CCCC2)cc1	> 50000 nM
COc1ccc(CCNC(=O)C(=O)Nc2ccc(C(=O)c3ccc(OC)cc3)cc2)cc1	81 nM
COc1ccc(CCNC(=O)NC(=O)c2ccc(C(=O)N3CCCCC3)cc2)cc1	2300 nM
COc1ccc(CCNC(=O)NC(=O)c2cccc(-c3ccccc3)c2)cc1	> 50000 nM

Compound	EC50
COc1ccc(CCNC(=O)NC(=O)c2ccc(-c3ccccc3)cc2)cc1	170 nM
COc1ccc(CCNC(=O)C(=O)Nc2ccc(Cl)c(C(F)(F)F)c2)cc1	1400 nM
COc1ccc(CCNC(=O)NC(=O)c2ccc(Cl)cc2)cc1	150 nM
COc1ccc(CCNC(=O)C(=O)Nc2cccc(Br)n2)cc1	> 50000 nM
Cc1ccc(CCNC(=O)C(=O)Nc2ccc(Cl)cc2)cc1	> 50000 nM
COc1ccc(CCNC(=O)C(=O)Nc2ccccc2Br)cc1	> 50000 nM
COc1ccc(CCNC(=O)C(=O)Nc2ccc(Cl)c([N+](=O)[O-])c2)cc1	1300 nM
COc1ccc(CCN(C)C(=O)N(C)C(=O)c2ccc(C(=O)c3ccccc3)cc2)cc1	16000 nM
COc1ccc(CCNC(=O)C(=O)Nc2cccnc2F)cc1	> 50000 nM
COc1cccc(CCNC(=O)C(=O)Nc2ccc(Cl)cc2)c1	> 50000 nM
COc1ccc(CCNC(=O)C(=O)N2Cc3ccccc3C2)cc1	> 50000 nM
COc1ccc(CCNC(=O)C(=O)Nc2cnccc2C)cc1	> 50000 nM
COc1ccc(CCNC(=O)C(=O)NCc2ccc(Cl)cc2)cc1	> 50000 nM
COc1ccc(CCNC(=O)C(=O)Nc2ccc(C(=O)c3ccc(O)cc3)cc2)cc1	> 50000 nM
COc1ccc(CCNC(=O)C(=O)Nc2ccc(Cl)cn2)cc1	350 nM
COc1ccc(CCNC(=O)C(=O)Nc2cc(Cl)cc(C(F)(F)F)c2)cc1	> 50000 nM
COc1ccc(CCNC(=O)C(=O)Nc2ccc(Br)cn2)cc1	290 nM
COc1ccc(CCNC(=O)C(=O)Nc2ccc(Cl)c(F)c2)cc1	290 nM
COc1ccc(CCNC(=O)C(=O)Nc2cnccn2)cc1	> 50000 nM
COc1ccc(CCNC(=O)C(=O)Nc2ccc(C)c(Cl)c2)cc1	600 nM
COc1ccc(CCNC(=O)CNc2ccc(Cl)cc2)cc1	> 50000 nM
COc1ccc(CCNC(=O)C(=O)NC2CCCCCC2)cc1	> 50000 nM
